These results are taken from US11739101B2, “Bifunctional degraders of hematopoietic progenitor kinase and therapeutic uses thereof” (Nurix Therapeutics, Inc., priority 2020, dated 2023).

The term Dmax denotes the largest share of the target that was removed.

This experiment concerns the target T1, HPK1 (Homo sapiens, UniProt Q92918).
T1 construct: A HiBiT tag was introduced by CRISPR on the N terminus of HPK1 in Jurkat cells; host or cells: Jurkat (ATCC TIB-152), monoclonal CRISPR HiBiT knock-in line
Put plainly: HPK1 Cellular HiBiT Degradation Assay. Type of experiment: cell-based. As to conditions: HiBiT-tagged HPK1 Jurkat cells, 24 hours, 10 uM to 0.1 nM; Dmax = 100 minus lowest % HPK1 remaining vs DMSO vehicle. The protocol:
HiBiT HPK1 Jurkat cell lines were used to evaluate the total protein levels of HPK1 in a robust human cellular high throughput format. The level of HPK1 remaining following treatment with HPK1 CTMs is reported as Dmax (maximum degradation) achieved at 24 hours when compared to vehicle treated controls. […] These decreases were not a result of cytotoxicity measured by a parallel viability assessment (CTG). See also Table 1.
A HiBiT tag was introduced by CRISPR on the N terminus of HPK1 in Jurkat cells (ATCC® TIB-152) to allow quantitation of HPK1 protein levels in a monoclonal human cell line. Cells were plated at 1×10^6 cells/mL, 30 uL/well (3×10^4 cells/well) in complete RPMI 1640 (10% heat inactivated FBS, 1% L-glutamine) in 384-well assay plates (Corning, cat. no. 3570). HPK1 chimeric targeting molecules (CTMs) were added in an 11-point dilution series (3.16-fold) with a final assay concentration range of 10 uM to 0.1 nM. The parental Jurkat cell line, with no HiBiT insertion, was included in the assay as a background control. Cells treated with a DMSO vehicle control were used to determine the maximum signal defining 100% HPK1 in the cell. Cells were incubated for 24 hours at 37° C./5% CO2. Following incubation, 30 uL of complete Nano-Glo HiBiT Lytic Detection Reagent (Promega cat. no. N3040) was added. Cells were incubated for 10 minutes at room temperature and luminescence was read on an EnVision plate reader (Perkin Elmer, 0.1 sec per well). Parallel plates were assessed for viability using Cell Titer Glo (Promega) and read on an EnVision plate reader to ensure results were not the effect of cytotoxicity. Percent HPK1 remaining per sample was calculated as follows: […]
% HPK1 remaining values were plotted as a function of compound concentration and curves were fit using the Prism (GraphPad) equation “log(inhibitor) vs response−Variable slope (four parameters)”. Dmax values were calculated by identifying the lowest % remaining and subtracting from 100. Dmax values are provided in Table 1, wherein A>65%, 45%≤B≤65% and C<45%.

Bounds are passed on as bounds.

T1 sequence (Q92918 whole entry): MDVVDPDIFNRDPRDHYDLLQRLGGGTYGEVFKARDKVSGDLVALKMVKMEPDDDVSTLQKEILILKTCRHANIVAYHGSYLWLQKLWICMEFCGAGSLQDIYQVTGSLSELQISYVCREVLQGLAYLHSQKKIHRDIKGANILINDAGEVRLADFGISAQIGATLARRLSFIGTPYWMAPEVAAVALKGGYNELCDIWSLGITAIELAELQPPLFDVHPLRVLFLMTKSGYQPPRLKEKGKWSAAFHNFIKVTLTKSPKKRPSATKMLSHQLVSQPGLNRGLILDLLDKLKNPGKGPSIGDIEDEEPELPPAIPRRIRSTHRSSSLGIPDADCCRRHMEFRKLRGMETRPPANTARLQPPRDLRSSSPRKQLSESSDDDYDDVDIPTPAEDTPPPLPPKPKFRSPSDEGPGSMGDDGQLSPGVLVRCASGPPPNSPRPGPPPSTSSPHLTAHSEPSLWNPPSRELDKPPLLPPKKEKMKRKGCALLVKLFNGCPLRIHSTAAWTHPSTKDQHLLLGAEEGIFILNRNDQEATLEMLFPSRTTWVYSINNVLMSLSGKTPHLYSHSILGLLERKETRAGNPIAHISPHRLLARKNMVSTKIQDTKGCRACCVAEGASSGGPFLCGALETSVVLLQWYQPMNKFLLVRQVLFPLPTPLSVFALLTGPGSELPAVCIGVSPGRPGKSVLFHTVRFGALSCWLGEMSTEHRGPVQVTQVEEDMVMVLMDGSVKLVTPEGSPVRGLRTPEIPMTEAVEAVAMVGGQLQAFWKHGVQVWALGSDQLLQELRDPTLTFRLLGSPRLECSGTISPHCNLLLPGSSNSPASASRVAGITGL

As for `CC(=O)N1CCC2(CC1)C(=O)N([C@H]1C[C@@H](N3CCC[C@@H](C(=O)NCCCCCCCOc4cc(-c5scnc5C)ccc4CNC(=O)[C@@H]4C[C@@H](O)CN4C(=O)[C@@H](NC(=O)C4(F)CC4)C(C)(C)C)C3)C1)c1cc(-c3cc4ncn(C(C)C)c4c(Nc4cc(C(=O)NC(C)C)c(C)cc4F)n3)ccc12` [Example 16, (R)-1-((1s,3s)-3-(1′-acetyl-6-(4-((2-fluoro-5-(isopropylcarbamoyl)-4-methylphenyl)amino)-3-isopropyl-3H-imidazo[4,5-c]pyridin-6-yl)-2-oxospiro[indoline-3,4′-piperidin]-1-yl)cyclobutyl)-N-(7-(2-(((2S,4R)-1-((S)-2-(1-fluorocyclopropane-1-carboxamido)-3,3-dimethylbutanoyl)-4-hydroxypyrrolidine-2-carboxamido)methyl)-5-(4-methylthiazol-5-yl)phenoxy)heptyl)piperidine-3-carboxamide], the Dmax is under 45%.
Then `CC(=O)N1CCC2(CC1)C(=O)N([C@H]1C[C@@H](N3CCC[C@@H](C(=O)NCCCCCCCCCOc4cc(-c5scnc5C)ccc4CNC(=O)[C@@H]4C[C@@H](O)CN4C(=O)[C@@H](NC(=O)C4(F)CC4)C(C)(C)C)C3)C1)c1cc(-c3cc4ncn(C(C)C)c4c(Nc4cc(C(=O)NC(C)C)c(C)cc4F)n3)ccc12` [Example 17, (R)-1-((1s,3s)-3-(1′-acetyl-6-(4-((2-fluoro-5-(isopropylcarbamoyl)-4-methylphenyl)amino)-3-isopropyl-3H-imidazo[4,5-c]pyridin-6-yl)-2-oxospiro[indoline-3,4′-piperidin]-1-yl)cyclobutyl)-N-(9-(2-(((2S,4R)-1-((S)-2-(1-fluorocyclopropane-1-carboxamido)-3,3-dimethylbutanoyl)-4-hydroxypyrrolidine-2-carboxamido)methyl)-5-(4-methylthiazol-5-yl)phenoxy)nonyl)piperidine-3-carboxamide], with under 45%; and `Cc1cc(F)c(Nc2nc(-c3ccc4c(c3)N([C@H]3C[C@@H](N5CCCCC5)C3)C(=O)C43CCN(C(=O)CN4CCN(CC(=O)N[C@H](C(=O)N5C[C@H](O)C[C@H]5C(=O)N[C@@H](C)c5ccc(-c6scnc6C)cc5)C(C)(C)C)CC4)CC3)cc3ncn(C(C)C)c23)cc1C(=O)NC(C)C` [Example 18, (2S,4R)-1-((S)-2-(2-(4-(2-(6-(4-((2-fluoro-5-(isopropylcarbamoyl)-4-methylphenyl)amino)-3-isopropyl-3H-imidazo[4,5-c]pyridin-6-yl)-2-oxo-1-((1s,3s)-3-(piperidin-1-yl)cyclobutyl)spiro[indoline-3,4′-piperidin]-1′-yl)-2-oxoethyl)piperazin-1-yl)acetamido)-3,3-dimethylbutanoyl)-4-hydroxy-N—((S)-1-(4-(4-methylthiazol-5-yl)phenyl)ethyl)pyrrolidine-2-carboxamide], with 45 to 65%.
The figure for `Cc1cc(F)c(Nc2nc(-c3ccc4c(c3)N([C@H]3C[C@@H](N5CCCCC5)C3)C(=O)C43CCN(C(=O)CN4CCC(CCCCC(=O)N[C@H](C(=O)N5C[C@H](O)C[C@H]5C(=O)N[C@@H](C)c5ccc(-c6scnc6C)cc5)C(C)(C)C)CC4)CC3)cc3ncn(C(C)C)c23)cc1C(=O)NC(C)C` [Example 19, (2S,4R)-1-((S)-2-(5-(1-(2-(6-(4-((2-fluoro-5-(isopropylcarbamoyl)-4-methylphenyl)amino)-3-isopropyl-3H-imidazo[4,5-c]pyridin-6-yl)-2-oxo-1-((1s,3s)-3-(piperidin-1-yl)cyclobutyl)spiro[indoline-3,4′-piperidin]-1′-yl)-2-oxoethyl)piperidin-4-yl)pentanamido)-3,3-dimethylbutanoyl)-4-hydroxy-N—((S)-1-(4-(4-methylthiazol-5-yl)phenyl)ethyl)pyrrolidine-2-carboxamide] is under 45%.
The figure for `Cc1cc(F)c(Nc2nc(-c3ccc4c(c3)N([C@H]3C[C@@H](N5CCCCC5)C3)C(=O)C43CCN(C(=O)CCN4CCC(CCCCC(=O)N[C@H](C(=O)N5C[C@H](O)C[C@H]5C(=O)N[C@@H](C)c5ccc(-c6scnc6C)cc5)C(C)(C)C)CC4)CC3)cc3ncn(C(C)C)c23)cc1C(=O)NC(C)C` [Example 20, (2S,4R)-1-((S)-2-(5-(1-(3-(6-(4-((2-fluoro-5-(isopropylcarbamoyl)-4-methylphenyl)amino)-3-isopropyl-3H-imidazo[4,5-c]pyridin-6-yl)-2-oxo-1-((1s,3s)-3-(piperidin-1-yl)cyclobutyl)spiro[indoline-3,4′-piperidin]-1′-yl)-3-oxopropyl)piperidin-4-yl)pentanamido)-3,3-dimethylbutanoyl)-4-hydroxy-N—((S)-1-(4-(4-methylthiazol-5-yl)phenyl)ethyl)pyrrolidine-2-carboxamide] is under 45%; for `Cc1cc(F)c(Nc2nc(-c3ccc4c(c3)N([C@H]3C[C@@H](N5CCCCC5)C3)C(=O)C43CCN(C(=O)CN4CCN(CCCc5cccc6c5C(=O)N(C5CCC(=O)NC5=O)C6=O)CC4)CC3)cc3ncn(C(C)C)c23)cc1C(=O)NC(C)C` (some centres unmarked) [Example 21, 5-{[6-(1′-{2-[4-(3-{2-[2,6-dioxopiperidin-3-yl]-1,3-dioxo-2,3-dihydro-1H-isoindol-4-yl}propyl)piperazin-1-yl]acetyl}-2-oxo-1-[(1s,3s)-3-(piperidin-1-yl)cyclobutyl]-1,2-dihydrospiro[indole-3,4′-piperidin]-6-yl)-3-(propan-2-yl)-3H-imidazo[4,5-c]pyridin-4-yl]amino}-4-fluoro-2-methyl-N-(propan-2-yl)benzamide] it is under 45%.
The compound `Cc1cc(F)c(Nc2nc(-c3ccc4c(c3)N([C@H]3C[C@@H](N5CCCCC5)C3)C(=O)C43CCN(C(=O)CN4CCC5(CC4)CN(c4ccc6c(c4)C(=O)N(C4CCC(=O)NC4=O)C6=O)C5)CC3)cc3ncn(C(C)C)c23)cc1C(=O)NC(C)C` (some centres unmarked) [Example 22, 5-[(6-{1′-[2-(2-{2-[2,6-dioxopiperidin-3-yl]-1,3-dioxo-2,3-dihydro-1H-isoindol-5-yl}-2,7-diazaspiro[3.5]nonan-7-yl)acetyl]-2-oxo-1-[(1s,3s)-3-(piperidin-1-yl)cyclobutyl]-1,2-dihydrospiro[indole-3,4′-piperidin]-6-yl}-3-(propan-2-yl)-3H-imidazo[4,5-c]pyridine-4-yl)amino]-4-fluoro-2-methyl-N-(propan-2-yl)benzamide] came in with a Dmax of under 45%.
`Cc1cc(F)c(Nc2nc(-c3ccc4c(c3)N([C@H]3C[C@@H](N5CCCCC5)C3)C(=O)C43CCN(C(=O)C4CN(C5CCN(c6ccc7c(c6)C(=O)N(C6CCC(=O)NC6=O)C7=O)CC5)C4)CC3)cc3ncn(C(C)C)c23)cc1C(=O)NC(C)C` (some centres unmarked) [Example 24, 5-[(6-{1′-[1-(1-{2-[2,6-dioxopiperidin-3-yl]-1,3-dioxo-2,3-dihydro-1H-isoindol-5-yl}piperidin-4-yl)azetidine-3-carbonyl]-2-oxo-1-[(1s,3s)-3-(piperidin-1-yl)cyclobutyl]-1,2-dihydrospiro[indole-3,4′-piperidin]-6-yl}-3-(propan-2-yl)-3H-imidazo[4,5-c]pyridin-4-yl)amino]-4-fluoro-2-methyl-N-(propan-2-yl)benzamide] came in with a Dmax of under 45%.
